Values quoted from earlier work as cited in EP0984012A2, “Nitric oxide releasing oxindole prodrugs with analgesic and anti-inflammatory properties” (Pfizer Products Inc., priority 1998, dated 2000).

How the values were obtained:
[1] = test system: experimental gastric ulcers; details: rat, daily treatment
[2] = animal models of acute and chronic inflammation; versus parent NSAID
[3] = administered on both an acute and a chronic basis; versus parent NSAID
[4] = test system: small intestine

Row | Compound | healing of experimental gastric ulcers [1] | anti-inflammatory activity [2] | gastric injury [3] | mitochondrial damage ([4]; in vivo) | macroscopic damage in the small intestine ([4]; rats, versus flurbiprofen)
1 | O=C(O)Cc1ccccc1Nc1c(Cl)cccc1Cl [diclofenac] | no effect |  |  |  | 
2 | CC(C(=O)OCCCCO[N+](=O)[O-])c1ccc(-c2ccccc2)c(F)c1 (stereo not drawn) [flurbiprofen nitroxybutylester] |  | comparable to that of their parent NSAIDs | markedly less gastric injury than that produced by their parent NSAIDs | associated with mitochondrial damage in vivo | significantly less macroscopic damage in the small intestine than flurbiprofen
3 | O=[N+]([O-])OCC(CO[N+](=O)[O-])O[N+](=O)[O-] [glyceryl trinitrate] | accelerated |  |  |  | 
4 | CC(C(=O)OCCCCO[N+](=O)[O-])c1cccc(C(=O)c2ccccc2)c1 (stereo not drawn) [ketoprofen nitroxybutylester] |  | comparable to that of their parent NSAIDs | markedly less gastric injury than that produced by their parent NSAIDs |  | 
5 | COc1ccc2cc(CCC(C)=O)ccc2c1 [nabumetone] | no effect |  |  |  | 
6 | O=C(Cc1ccccc1Nc1c(Cl)cccc1Cl)OCCCCO[N+](=O)[O-] [nitrofenac, diclofenac-4-nitroxybutylester] | accelerated | comparable to that of their parent NSAIDs | markedly less gastric injury than that produced by their parent NSAIDs |  | 
